From the supplement of paper PMC8671470
Structures can show the parent of a compound that is named as a salt.

Key:
Assay in all cases: cell viability (% survival relative to DMSO control); higher = less cytotoxic
Conditions in all cases: 72 h
[1] = test system: Mono-Mac-6
Experimental: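 8x8 drug-combination matrices (0–5000 nM; rosiglitazone and lestaurtinib 0–1000 nM) were run in Mono-Mac-6 cells for 72 h with CellTiter-Glo read-out. Survival is normalised to DMSO and 10 µM bortezomib and clipped at 100%.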

[2] = test system: BV-173
Experimental: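 8x8 drug-combination matrices (0–5000 nM; rosiglitazone and lestaurtinib 0–1000 nM) were run in BV-173 cells for 72 h with CellTiter-Glo read-out. Survival is normalised to DMSO and 10 µM bortezomib and clipped at 100%.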

[3] = test system: MV4-11
Experimental: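 8x8 drug-combination matrices (0–5000 nM; rosiglitazone and lestaurtinib 0–1000 nM) were run in MV4-11 cells for 72 h with CellTiter-Glo read-out. Survival is normalised to DMSO and 10 µM bortezomib and clipped at 100%.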

CN(CCOc1ccc(Cc2sc(O)nc2O)cc1)c1ccccn1 [Rosiglitazone] + CC(C)(Cc1ccccc1)NCC(O)c1ccc(O)c(NS(C)(=O)=O)c1 [Zinterol hydrochloride]
cell viability [%]
Conditions | drug1 concentration 1 nM | drug1 concentration 5 nM | drug1 concentration 10 nM | drug1 concentration 50 nM | drug1 concentration 100 nM | drug1 concentration 500 nM | drug1 concentration 1000 nM
[1], drug2 concentration 5 nM | 83 | 77.8 | > 100 | 79.7 | 78.7 | 27.6 | 21.7
[1], drug2 concentration 10 nM | 66.3 | 76 | 74.4 | 89.6 | 60.8 | 20.5 | 24.5
[1], drug2 concentration 50 nM | 86.8 | 79.1 | 74.5 | 76.7 | 45.8 | 29.2 | 28.8
[1], drug2 concentration 100 nM | 70.8 | 77.4 | 78.3 | 62.9 | 49.7 | 28 | 18.9
[1], drug2 concentration 500 nM | 74.7 | 67.8 | 67.6 | 66.1 | 47.9 | 28.4 | 27.1
[1], drug2 concentration 1000 nM | 76.3 | 86.7 | 74.7 | 66.2 | 45.4 | 20.5 | 32.7
[1], drug2 concentration 5000 nM | 55.9 | 64.8 | 51.4 | 46.9 | 49.4 | 22 | 0
[2], drug2 concentration 5 nM | > 100 | > 100 | > 100 | > 100 | > 100 | > 100 | > 100
[2], drug2 concentration 10 nM | > 100 | 86.8 | > 100 | > 100 | > 100 | > 100 | > 100
[2], drug2 concentration 50 nM | 98.6 | > 100 | 88.7 | > 100 | 91.5 | > 100 | > 100
[2], drug2 concentration 100 nM | > 100 | > 100 | > 100 | > 100 | > 100 | 97.1 | > 100
[2], drug2 concentration 500 nM | > 100 | > 100 | > 100 | > 100 | > 100 | > 100 | > 100
[2], drug2 concentration 1000 nM | > 100 | 89.5 | > 100 | 94.1 | > 100 | > 100 | > 100
[2], drug2 concentration 5000 nM | 94.8 | > 100 | 90.4 | > 100 | > 100 | 97.6 | > 100
[3], drug2 concentration 5 nM | > 100 | 97.6 | 93.9 | 77.8 | > 100 | > 100 | > 100
[3], drug2 concentration 10 nM | > 100 | > 100 | > 100 | > 100 | > 100 | 89.1 | > 100
[3], drug2 concentration 50 nM | 97 | 96.9 | 91.9 | > 100 | > 100 | 94 | > 100
[3], drug2 concentration 100 nM | > 100 | > 100 | > 100 | > 100 | 93 | 96.1 | > 100
[3], drug2 concentration 500 nM | 99.9 | > 100 | 98.7 | > 100 | > 100 | 87.2 | 98.8
[3], drug2 concentration 1000 nM | > 100 | 70.6 | 96.2 | > 100 | 91.6 | 95.1 | > 100
[3], drug2 concentration 5000 nM | 95 | > 100 | 98.5 | > 100 | > 100 | > 100 | > 100

O=C(O)CC[N+](=O)[O-] [3-nitropropionic acid] + CCn1c(=Cc2cccc[n+]2CC)sc(=C2Sc3ccccc3N2C)c1=O [MKT 077]
cell viability [%]
Conditions | drug1 concentration 5 nM | drug1 concentration 10 nM | drug1 concentration 50 nM | drug1 concentration 100 nM | drug1 concentration 500 nM | drug1 concentration 1000 nM | drug1 concentration 5000 nM
[1], drug2 concentration 5 nM | > 100 | 98.1 | > 100 | 90.2 | > 100 | > 100 | 90.3
[1], drug2 concentration 10 nM | > 100 | > 100 | > 100 | > 100 | > 100 | > 100 | > 100
[1], drug2 concentration 50 nM | > 100 | > 100 | > 100 | 91 | 96.5 | 86 | > 100
[1], drug2 concentration 100 nM | 84.8 | > 100 | > 100 | > 100 | > 100 | > 100 | 76.8
[1], drug2 concentration 500 nM | 99.9 | 82.8 | > 100 | > 100 | > 100 | 84.4 | > 100
[1], drug2 concentration 1000 nM | > 100 | > 100 | > 100 | > 100 | 96.7 | 87 | 82.4
[1], drug2 concentration 5000 nM | 79.1 | 74.4 | > 100 | > 100 | 63.8 | > 100 | > 100
[2], drug2 concentration 5 nM | 83.1 | 78.6 | 88.7 | > 100 | > 100 | 83.5 | 59.7
[2], drug2 concentration 10 nM | 97.8 | > 100 | > 100 | 94.6 | 72.9 | 92.9 | > 100
[2], drug2 concentration 50 nM | 93.3 | > 100 | > 100 | > 100 | > 100 | 99.5 | > 100
[2], drug2 concentration 100 nM | 78.1 | 85.8 | > 100 | 94.3 | > 100 | > 100 | 87.9
[2], drug2 concentration 500 nM | > 100 | 84.2 | 84.2 | 86.4 | > 100 | 76.6 | > 100
[2], drug2 concentration 1000 nM | > 100 | > 100 | > 100 | > 100 | 89.1 | 88.9 | 74.4
[2], drug2 concentration 5000 nM | > 100 | 72 | > 100 | > 100 | > 100 | > 100 | > 100
[3], drug2 concentration 5 nM | 89.1 | 97 | > 100 | 86.8 | > 100 | > 100 | 75.6
[3], drug2 concentration 10 nM | 89.2 | > 100 | > 100 | 83.7 | 98.1 | > 100 | > 100
[3], drug2 concentration 50 nM | > 100 | > 100 | > 100 | 84.1 | > 100 | 81.3 | > 100
[3], drug2 concentration 100 nM | 97.3 | > 100 | 93.7 | 84.3 | > 100 | 88.2 | 68.4
[3], drug2 concentration 500 nM | > 100 | 96 | 92.7 | > 100 | 94.3 | 91.4 | 86.1
[3], drug2 concentration 1000 nM | 89.6 | 97.4 | 92.8 | > 100 | 97.6 | > 100 | 65.1
[3], drug2 concentration 5000 nM | 72.5 | 80 | 96.6 | > 100 | 87.2 | 97.2 | 79.8
